Experimental data published in patent US10959432B2, “Microbiocidal oxadiazole derivatives” (Syngenta Participations AG, priority 2016, dated 2021).

Experiments:
[1] = tested on: Puccinia recondita f. sp. tritici; experiment: Fungicidal activity against Puccinia recondita f. sp. tritici / wheat / leaf disc curative (brown rust); format: in vivo; conditions: foliar, 200 ppm in the applied formulation, wheat leaf segments cv. Kanzler, curative (applied 1 day after inoculation), assessed 6 to 8 days after application, read-out: disease control compared to untreated control leaf disks
Summary of the method: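 Wheat cv. Kanzler leaf segments on agar, spore-inoculated, held dark at 19° C./75% RH; formulated compound in water sprayed 1 day post-inoculation (curative). Incubated 19° C., 75% RH, 12 h light/12 h dark; percent disease control vs untreated scored 6 to 8 days after application.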

[2] = tested on: Glomerella laqenarium (Colletotrichum lagenarium); experiment: Fungicidal activity against Glomerella lagenarium (Colletotrichum lagenarium) liquid culture / cucumber / preventative (anthracnose); format: cell-based; conditions: Colletotrichum orbiculare; 20 ppm in the applied formulation; liquid culture in PDB, 24° C., 3 to 4 days after application; read-out: disease control compared to untreated control (inhibition of growth measured photometrically)
Summary of the method: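 Cryostored conidia mixed into potato dextrose broth and added to test compound (from DMSO solution) in microtiter plates. Incubated at 24 °C; growth inhibition read photometrically 3 to 4 days after application, as percent activity versus untreated check.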

Phakopsora pachyrhizi = experiment: Fungicidal activity against Phakopsora pachyrhizi / soybean / leaf disc preventative (Asian soybean rust); format: in vivo; conditions: foliar, 200 ppm in the applied formulation, soybean leaf disks, preventative (inoculated one day after application), assessed 12 to 14 days after application, read-out: disease control compared to untreated control leaf disks
Summary of the method: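 Soybean leaf discs on water agar sprayed with formulated compound diluted in water; spore suspension sprayed on lower leaf surface one day later. Incubated 24-36 h dark at 20° C, 75% rh, then 20° C, 12 h light/day, 75% rh. Percent disease control versus untreated scored 12 to 14 days after application.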

[3] = tested on: Puccinia recondita f. sp. tritici; experiment: Fungicidal activity against Puccinia recondita f. sp. tritici / wheat / leaf disc preventative (brown rust); format: in vivo; conditions: foliar, 200 ppm in the applied formulation, wheat leaf segments cv. Kanzler, preventative (inoculated 1 day after application), assessed 7 to 9 days after application, read-out: disease control compared to untreated control leaf disks
Summary of the method: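 Wheat cv. Kanzler leaf segments on agar sprayed with formulated compound diluted in water, inoculated with P. recondita spores 1 day later. Incubated at 19C, 75% rh, 12 h light/12 h dark; scored 7 to 9 days after application as percent disease control versus untreated segments. Test rate 200 ppm.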

COCCN(C(=O)c1ccc(-c2noc(C(F)(F)F)n2)cc1)C(C)C [Compound 3a.12, N-isopropyl-N-(2-methoxyethyl)-4-[5-(trifluoromethyl)-1,2,4-oxadiazol-3-yl]benzamide]
≥ 80%: pest or weed control at 200 ppm [1] | inhibition at 20 ppm [2] | pest or weed control at 200 ppm (Phakopsora pachyrhizi) | pest or weed control at 200 ppm [3]

O=C(NCCCCO)c1ccc(-c2noc(C(F)(F)F)n2)cc1 [Compound 3a.24, N-(4-hydroxybutyl)-4-[5-(trifluoromethyl)-1,2,4-oxadiazol-3-yl]benzamide]
≥ 80%: pest or weed control at 200 ppm [1] | inhibition at 20 ppm [2] | pest or weed control at 200 ppm (Phakopsora pachyrhizi) | pest or weed control at 200 ppm [3]

CC(C)CN(C)C(=O)c1ccc(-c2noc(C(F)(F)F)n2)cc1 [Compound 3a.13, N-isobutyl-N-methyl-4-[5-(trifluoromethyl)-1,2,4-oxadiazol-3-yl]benzamide]
≥ 80%: pest or weed control at 200 ppm [1] | inhibition at 20 ppm [2] | pest or weed control at 200 ppm (Phakopsora pachyrhizi) | pest or weed control at 200 ppm [3]

CC(C)OCCNC(=O)c1ccc(-c2noc(C(F)(F)F)n2)cc1F [Compound 3b.43, 2-fluoro-N-(2-isopropoxyethyl)-4-[5-(trifluoromethyl)-1,2,4-oxadiazol-3-yl]benzamide]
≥ 80%: pest or weed control at 200 ppm [1] | inhibition at 20 ppm [2] | pest or weed control at 200 ppm (Phakopsora pachyrhizi) | pest or weed control at 200 ppm [3]

CCOC(C)CNC(=O)c1ccc(-c2noc(C(F)(F)F)n2)cc1 (centres unmarked) [Compound 3a.11, N-(2-ethoxypropyl)-4-[5-(trifluoromethyl)-1,2,4-oxadiazol-3-yl]benzamide]
≥ 80%: pest or weed control at 200 ppm [1] | inhibition at 20 ppm [2] | pest or weed control at 200 ppm (Phakopsora pachyrhizi) | pest or weed control at 200 ppm [3]

CC(=O)CC(C)(C)NC(=O)c1ccc(-c2noc(C(F)(F)F)n2)cc1F [Compound 3b.15, N-(1,1-dimethyl-3-oxo-butyl)-2-fluoro-4-[5-(trifluoromethyl)-1,2,4-oxadiazol-3-yl]benzamide]
≥ 80%: pest or weed control at 200 ppm [1] | inhibition at 20 ppm [2] | pest or weed control at 200 ppm (Phakopsora pachyrhizi) | pest or weed control at 200 ppm [3]

CCCCN(C)C(=O)c1ccc(-c2noc(C(F)(F)F)n2)cc1 [Compound 3a.36, N-butyl-N-methyl-4-[5-(trifluoromethyl)-1,2,4-oxadiazol-3-yl]benzamide]
≥ 80%: pest or weed control at 200 ppm [1] | inhibition at 20 ppm [2] | pest or weed control at 200 ppm (Phakopsora pachyrhizi) | pest or weed control at 200 ppm [3]

CC(C)NC(=O)c1ccc(-c2noc(C(F)(F)F)n2)cc1F [Compound 3b.27, 2-fluoro-N-isopropyl-4-[5-(trifluoromethyl)-1,2,4-oxadiazol-3-yl]benzamide]
≥ 80%: pest or weed control at 200 ppm [1] | inhibition at 20 ppm [2] | pest or weed control at 200 ppm (Phakopsora pachyrhizi) | pest or weed control at 200 ppm [3]

O=C(NCC1CC1)c1ccc(-c2noc(C(F)(F)F)n2)cc1Cl [Compound 2b.13, 2-chloro-N-(cyclopropyl-methyl)-4-[5-(trifluoromethyl)-1,2,4-oxadiazol-3-yl]benzamide]
≥ 80%: pest or weed control at 200 ppm [1] | inhibition at 20 ppm [2] | pest or weed control at 200 ppm (Phakopsora pachyrhizi) | pest or weed control at 200 ppm [3]

CCC(O)CNC(=O)c1ccc(-c2noc(C(F)(F)F)n2)cc1 (centres unmarked) [Compound 3a.14, N-(2-hydroxybutyl)-4-[5-(trifluoromethyl)-1,2,4-oxadiazol-3-yl]benzamide]
≥ 80%: pest or weed control at 200 ppm [1] | inhibition at 20 ppm [2] | pest or weed control at 200 ppm (Phakopsora pachyrhizi) | pest or weed control at 200 ppm [3]

CCN(CC)C(=O)c1ccc(-c2noc(C(F)(F)F)n2)cc1 [Compound 3a.30, N,N-diethyl-4-[5-(trifluoromethyl)-1,2,4-oxadiazol-3-yl]benzamide]
≥ 80%: pest or weed control at 200 ppm [1] | inhibition at 20 ppm [2] | pest or weed control at 200 ppm (Phakopsora pachyrhizi) | pest or weed control at 200 ppm [3]
